Measurements taken from PMC8838898, “Identification of Novel Cannabinoid CB2 Receptor Agonists from Botanical Compounds and Preliminary Evaluation of Their Anti-Osteoporotic Effects” (Molecules, 2022).
Read-outs that look alike come from different tables or passages of the source.

What was measured:
[1] = target: T1, CB2R (Homo sapiens, UniProt P34972); assay: forskolin-stimulated cAMP accumulation assay in HEK293-CB2 cells; type: cell-based; conditions: forskolin 30 min, then compound 6 h, read-out: IC50 of inhibition of forskolin-stimulated cAMP
T1 construct: expressed in transfected cells; host or cells: HEK293 cells stably transfected with pIRES2-EGFP-CB2, pGL4.29 [luc2P/CRE/Hygro] and pRL-TK
Description: After treatment, the cell supernatant was diluted with PBS (pH 7.2–7.4). The cells were lysed by repeated freeze–thaw cycles and being centrifuged for 20 min at 2000–3000 r.p.m. The concentration of cAMP in the cell lysate was determined according to the instructions of the cAMP kit.

[2] = test system: osteoblasts derived from mBMSC; assay: bone mineralization nodules of osteoblasts (alizarin red staining); type: cell-based, rat; conditions: 1 μM, 14 days
Description: (§1) BMSCs were isolated from the femur of 1-day-old Wistar rats and cultured in a dish containing α-MEM supplemented with 10% FBS, 100 U·mL^−1 penicillin, […] streptomycin, and 1% L-Glutaminea in a humidified atmosphere of 5% CO2 for 24 h. The medium was changed every three days. The subculture cells (passage 2–4) were used for subsequent experiments. BMSCs were identified in terms of the morphological character and properties of differentiation into osteoblasts. This experiment was approved by the Bioethics Committee of Zhejiang University of Traditional Chinese Medicine.
Cells were treated as described above for 14 days to observe the bone mineralized nodule formation using alizarin red staining solution. Briefly, the cells were washed with pre-cooled PBS twice, fixed with 3.7% formaldehyde for 10 min, and stained with ARS dye (pH = 4.2) containing 40 mM alizarin redstain for 10 min. The morphology and number of bone mineralized nodules of osteoblasts were observed under a light microscope.

[3] = test system: mBMSCs cells; assay: proliferation of BMSCs (CCK8); type: cell-based, rat; conditions: 1 μM, 48 h
Description: as §1
(§2) The BMSCs cells were inoculated in a 96-well plate at a density of 1 × 10^4 cells per well and cultured at 37 °C for 24 h. […] The optical density (OD) value was determined at 450 nm. The BMSCs cells were treated as described above and cultured for seven days to measure the ALP activity according to the kit instructions or cultured for five days to stain ALP in the osteoblasts according to the following procedures. Briefly, cells were washed with pre-cooled PBS twice and stained with the alkaline phosphatase staining solution for 30 min at 37 °C. After discarding the dye solution, cells were rinsed with distilled water three times and observed and photographed under a light microscope.

[4] = test system: osteoblasts derived from mBMSC; assay: ALP activity of osteoblasts derived from BMSCs; type: cell-based, rat; conditions: 1 μM, seven days
Description: as §1, §2

[5] = target: T1, CB2R; assay: double luciferase reporter screening system in HEK293-CB2 cells; type: cell-based
Description: To generate the HEK293-CB2 cells, 5 × 10^5 HEK293 cells were cultured in a 60 mm culture dish for 12 h, washed with PBS, and then transfected with Lipofectamine 3000 reagent containing a test reporter plasmid, control reporter plasmid encoding Renilla luciferase, and effector plasmid. The ratio of the transfection plasmid pIRES2-EGFP-CB2, pGL4.29 [luc2P/CRE/Hygro], and pRL-TK was 2 μg, 10 μg, and 1μg, respectively. After a 24-htransfection, cells were selected and cultured in the medium containing G418 (800 μg·mL^−1) and hygromycin (400 μg·mL^−1) for two weeks. The surviving cells were picked and expanded as HEK293-CB2R cells.
Several aspects of the high-throughput screening system were optimized to ensure efficient and accurate application of the system for high-throughput data collection. To conduct high-throughput assays in 96-well plates, the number of cells seeded per well, incubation time, drug and AM630 concentrations, and the DMSO content were optimized. The dual luciferase assay was performed as described previously. […] Subsequently, the quantitative evaluation indexes of the high-throughput screening system, including the signal-to-background ratio, S/B = Msignal/Mbackground; signal window, SW = Msignal − Mbackground; signal-to-noise ratio, S/N = (Msignal − Mbackground)/SDbackground; signal background coefficient of variation, CV(%) = 100 × SDsignal/Msignal; and Z’ factor were determined to ensure its efficient and accurate application of the system in high-throughput data collection. Here, Z′ = 1 − 3(SDsignal + SDbackground)/|Msignal − Mbackground| [25], where M represents an average of the relative luminescence value and SD is the standard deviation of M.
The HEK293-CB2 cells from 10–40 passages were separately inoculated into 96-well plates at 5 × 10^3 cells per well. […] The results were expressed as relative luminescence values.
The HEK293-CB2 cells were inoculated on a 96-well culture plate with a density of 5 × 10^3 cells per well. […] The relative luminescence value was used to express the expression of CB2R.
Furthermore, the activation of the compounds on CB2R was also verified by using the CB2R inverse agonist AM630. The HEK293-CB2 cells were inoculated on a 6-well culture plate at a density of 5 × 10^4 cells per well. […] The expression of the CB2R gene is expressed by the relative luminescence value.

[6] = test system: osteoclasts derived from RAW264.7 cells; assay: TRAP activity of osteoclasts derived from RAW264.7 cells induced with RANKL; type: cell-based, murine; conditions: 1 μM, three-day treatment; enzyme activity and cell staining
Description: The murine macrophage RAW264.7 cell line, which has the potential to differentiate into osteoclasts under the induction of RANKL, was obtained from the Cell Bank of the Chinese Academy of Sciences (Shanghai, China). The cells were cultured in DMEM containing 10% (v/v), 1% (v/v) penicillin, and streptomycin (Beyotime, Shanghai, China) at 37 °C in humidified air with 5% CO2, and then subcultured every two days. For induction of the osteoclasts, RAW264.7 cells were incubated with 25 ng·mL^−1 RANKL for 72 h. Osteoclasts were identified by TRAP staining.
RAW264.7 cells were inoculated in a 96-well plate at a density of 1 × 10^4 cells per well. After a 24-h culture at 37 °C, cells were treated with the test compounds for 48 h and cell viability was determined with the CCK-8 kit according to the instructions. RAW264.7 cells were inoculated on a 96-well culture plate at a density of 1 × 10^4 cells per well, induced with […] of nuclear factor-κB receptor activator ligand (RANKL) to differentiate into osteoclasts for 72 h. […] Briefly, the cells were washed with sodium thiobarbital twice, lysed with 0.1% Triton X-100 (10 μL per well) for 10 min, and then incubated with 100 μL of TRAP reaction solution (0.02 g disodium nitrophenyl phosphate and 0.1 g potassium sodium tartrate dissolved in 10 mL deionized water with pH adjusted to 3.5 by addition of 1 mol·L^−1 HCl) for 30 min at 37 °C. The reaction was terminated with 1 mol·L^−1 of NaOH solution (100 μL per well) and the absorbance was determined at a wavelength of 405 nm. The TRAP activity was expressed by the amount (mole) of p-nitrophenol produced by 100 osteoclasts. For staining, the osteoclasts were treated as described above, stained according to the instruction of the TRAP staining kit, and observed and photographed under a light microscope.

[7] = HEK293-CB2 cells, pretreated with 1 μM AM630 for 30 min, then 1 μM compound 6 h

T1 sequence (P34972 whole entry): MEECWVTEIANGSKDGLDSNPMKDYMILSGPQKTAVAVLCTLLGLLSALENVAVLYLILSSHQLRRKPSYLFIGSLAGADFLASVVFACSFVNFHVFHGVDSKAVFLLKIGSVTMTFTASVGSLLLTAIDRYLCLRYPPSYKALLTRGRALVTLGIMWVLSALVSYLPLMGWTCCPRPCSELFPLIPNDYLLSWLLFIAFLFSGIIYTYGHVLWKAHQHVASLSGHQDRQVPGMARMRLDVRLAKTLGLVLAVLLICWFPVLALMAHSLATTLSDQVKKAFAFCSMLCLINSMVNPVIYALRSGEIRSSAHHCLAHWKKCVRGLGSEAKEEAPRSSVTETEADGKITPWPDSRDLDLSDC

For C[C@H]1[C@H](C)CC[C@]2(C)CC[C@]3(C)C(=CC(=O)[C@@H]4[C@@]5(C)CC[C@@H](O)[C@](C)(C(=O)O)[C@@H]5CC[C@]43C)[C@H]12 [11-Keto-beta-boswellic acid], the IC50 [1] was 73 nM, the “matrix mineralization of osteoblasts derived from mBMSC” value (“matrix mineralization” below) [2] was “increased” and the “proliferation of mBMSCs cells” value [3] was “increased”. The “ALP activity of osteoblasts derived from mBMSC” value (“ALP activity” below) [4] was “increased”, the “agonistic effect on CB2R (relative luminescence / fluorescence expression in HEK293-CB2)” value ([5]; 1 μM, 6 h, HEK293-CB2 cells) was “could increase the fluorescence expression” and the “reversal of the agonistic effect on CB2R by AM630” value (shortened to “reversal of the agonistic effect”) [5, 7] was “could be abated by AM630”. The “TRAP activity of osteoclasts derived from RAW264.7 cells induced with RANKL” value (“TRAP activity of osteoclasts derived” below) [6] was “inhibited TRAP activity”.
With COc1ccc(C(=O)c2c(C)n(CCN3CCOCC3)c3cc(I)ccc23)cc1 [AM630, reference compound] the “reversal effect on the agonistic effect of HU308 on CB2R” value [5] was “mitigated”.
In the case of CC(=O)OCC1=C[C@@H]2OC(=O)C3=CO[C@@H](O[C@@H]4O[C@H](CO)[C@@H](O)[C@H](O)[C@H]4O)[C@H]1[C@@H]32 [Asperuloside], the IC50 [1] is reported as 281 nM, the “proliferation of mBMSCs cells” value [3] is reported as “had no effect on the proliferation” and the “agonistic effect on CB2R (relative luminescence / fluorescence expression in HEK293-CB2)” value [5] is reported as “could increase the fluorescence expression”. For the same compound, the “reversal of the agonistic effect” value [5] was “could be abated by AM630”.
With COc1cc(/C=C/c2ccccc2)oc(=O)c1 [Desmethoxyyangonin] the IC50 [1] was 29.9 nM, the “matrix mineralization” value [2] was “increased” and the “proliferation of mBMSCs cells” value [3] was “increased”. The “ALP activity” value [4] was “increased”, the “agonistic effect on CB2R (relative luminescence / fluorescence expression in HEK293-CB2)” value ([5]; 1 μM, 6 h, HEK293-CB2 cells) was “could increase the fluorescence expression” and the “reversal of the agonistic effect” value [5, 7] was “could be abated by AM630”. The “TRAP activity of osteoclasts derived” value [6] was “inhibited TRAP activity”.
COC1=CC(=O)O[C@@H](CCc2ccc3c(c2)OCO3)C1 [Dihydromethysticin] was tested, and the IC50 [1] was 35.7 nM, the “matrix mineralization” value [2] was “increased” and the “proliferation of mBMSCs cells” value [3] was “increased”. The “ALP activity” value [4] was “increased”, the “agonistic effect on CB2R (relative luminescence / fluorescence expression in HEK293-CB2)” value ([5]; 1 μM, 6 h, HEK293-CB2 cells) was “could increase the fluorescence expression” and the “reversal of the agonistic effect” value [5, 7] was “could be abated by AM630”.
COc1cc(O)ccc1/C=C/C(=O)c1ccc(O)cc1 [Echinatin] was tested, and the IC50 [1] was 90.5 nM, the “matrix mineralization” value [2] was “increased” and the “proliferation of mBMSCs cells” value [3] was “increased”. The “ALP activity” value [4] was “increased”, the “agonistic effect on CB2R (relative luminescence / fluorescence expression in HEK293-CB2)” value ([5]; 1 μM, 6 h, HEK293-CB2 cells) was “could increase the fluorescence expression” and the “reversal of the agonistic effect” value [5, 7] was “could be abated by AM630”. The “TRAP activity of osteoclasts derived” value [6] was “inhibited TRAP activity”.
With COc1ccc(/C=C/C(=O)c2c(O)cc(OC)cc2OC)cc1 [Flavokawain A] the IC50 [1] was 902 nM, the “matrix mineralization” value [2] was “increased” and the “proliferation of mBMSCs cells” value [3] was “increased”. The “ALP activity” value [4] was “increased”, the “agonistic effect on CB2R (relative luminescence / fluorescence expression in HEK293-CB2)” value ([5]; 1 μM, 6 h, HEK293-CB2 cells) was “could increase the fluorescence expression” and the “reversal of the agonistic effect” value [5, 7] was “could be abated by AM630”. The “TRAP activity of osteoclasts derived” value [6] was “inhibited TRAP activity”.
For COc1cc(O)c(C(=O)/C=C/c2ccc(O)cc2)c(OC)c1 [Flavokawain C], the IC50 [1] was 5170 nM, the “proliferation of mBMSCs cells” value [3] was “had no effect on the proliferation” and the “agonistic effect on CB2R (relative luminescence / fluorescence expression in HEK293-CB2)” value ([5]; 1 μM, 6 h, HEK293-CB2 cells) was “could increase the fluorescence expression”. The “reversal of the agonistic effect” value [5, 7] was “could be abated by AM630”.
With O=c1c2cc(O)c(O)cc2oc2cc(O)c([C@@H]3O[C@H](CO)[C@@H](O)[C@H](O)[C@H]3O)c(O)c12 [Mangiferin] the IC50 [1] was 1170 nM, the “matrix mineralization” value [2] was “increased” and the “proliferation of mBMSCs cells” value [3] was “increased”. For the same compound, the “ALP activity” value [4] was “increased”, the “agonistic effect on CB2R (relative luminescence / fluorescence expression in HEK293-CB2)” value [5] was “could increase the fluorescence expression” and the “reversal of the agonistic effect” value [5] was “could be abated by AM630”. For the same compound, the “TRAP activity of osteoclasts derived” value [6] was “inhibited TRAP activity”.
For O=c1cc(-c2ccc(O)c(O)c2)oc2c([C@@H]3O[C@H](CO)[C@@H](O)[C@H](O)[C@H]3O)c(O)cc(O)c12 [Orientin], the IC50 [1] was 111 nM, the “proliferation of mBMSCs cells” value [3] was “had no effect on the proliferation” and the “agonistic effect on CB2R (relative luminescence / fluorescence expression in HEK293-CB2)” value ([5]; 1 μM, 6 h, HEK293-CB2 cells) was “could increase the fluorescence expression”. The “reversal of the agonistic effect” value [5, 7] was “could be abated by AM630”.
In the case of C=C[C@@]1(C)CC(=O)[C@]2(O)[C@@]3(C)[C@@H](O)CCC(C)(C)[C@@H]3[C@H](O)[C@H](OC(C)=O)[C@@]2(C)O1 [forskolin, reference compound], the “signal average and standard deviation (positive control group)” value ([5]; screening system validation, forskolin 1 μM) is reported as 63.3 ± 4.4%.
